Publication PMC11310889, “Ribosomal translation of fluorinated non-canonical amino acids for de novo biologically active fluorinated macrocyclic peptides” (Chemical Science, 2024)
Where a SMILES comes first, the peptide text is derived from it. Bridges are numbered along the chain shown (N, C = ends). [ ]: non-standard residue; d: D form. Phe(3,4-F2) = N[C@@H](Cc1ccc(F)c(F)c1)C(=O)O; dPhe(4-F) = N[C@H](Cc1ccc(F)cc1)C(=O)O

Tests used:
BAM complex = system: T1, BAM complex; assay: SPR binding kinetics to BAM complex; parameters: species or system E. coli; conditions: Biacore T200, 25 °C, multi-cycle kinetics, 1:1 model
T1 construct: made in house; host or cells: E. coli BL21(DE3), strain obtained from Xinmiao Fu, Fujian Normal University
T1 sequence (P0A903 25-344): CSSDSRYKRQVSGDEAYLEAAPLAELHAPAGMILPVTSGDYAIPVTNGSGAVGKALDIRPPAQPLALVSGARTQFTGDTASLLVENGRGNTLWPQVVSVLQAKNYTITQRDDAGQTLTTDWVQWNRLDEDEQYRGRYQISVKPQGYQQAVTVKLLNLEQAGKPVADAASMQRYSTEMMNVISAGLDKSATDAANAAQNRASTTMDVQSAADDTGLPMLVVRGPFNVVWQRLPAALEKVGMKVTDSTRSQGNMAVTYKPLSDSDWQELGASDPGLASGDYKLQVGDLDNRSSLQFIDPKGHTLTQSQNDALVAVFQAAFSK
T1 sequence (P0AC02 20-245, further chain): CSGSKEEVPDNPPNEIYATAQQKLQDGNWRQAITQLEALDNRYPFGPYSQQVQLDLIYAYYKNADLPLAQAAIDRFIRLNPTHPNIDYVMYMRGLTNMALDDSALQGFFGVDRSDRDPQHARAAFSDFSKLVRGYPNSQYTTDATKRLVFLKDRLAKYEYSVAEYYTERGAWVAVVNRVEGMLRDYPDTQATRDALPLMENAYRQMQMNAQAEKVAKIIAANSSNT
T1 sequence (P0A937 20-113, further chain): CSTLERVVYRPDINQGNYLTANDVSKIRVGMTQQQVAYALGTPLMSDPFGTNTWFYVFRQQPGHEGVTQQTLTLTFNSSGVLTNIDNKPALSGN
T1 sequence (P77774 20-392, further chain): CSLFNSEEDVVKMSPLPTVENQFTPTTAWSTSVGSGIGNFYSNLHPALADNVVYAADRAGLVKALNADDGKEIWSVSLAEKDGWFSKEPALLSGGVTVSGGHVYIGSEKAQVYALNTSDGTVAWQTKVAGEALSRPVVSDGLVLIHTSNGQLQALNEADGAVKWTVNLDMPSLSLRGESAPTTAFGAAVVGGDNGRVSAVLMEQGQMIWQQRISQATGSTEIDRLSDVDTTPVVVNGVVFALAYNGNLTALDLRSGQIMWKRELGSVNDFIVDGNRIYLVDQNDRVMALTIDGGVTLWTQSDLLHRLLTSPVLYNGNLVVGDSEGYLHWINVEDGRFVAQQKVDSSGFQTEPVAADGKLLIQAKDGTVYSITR
Procedure: Expression and purification of the BAM complex
The E. coli BL21(DE3) cells containing all five Bam proteins (BamA, B, C, D, and E) was obtained from Xinmiao Fu of Fujian Normal University and used for expression and purification.
The BL21(DE3) cells plated onto LB-ampicillin agar plates and incubated overnight at 37 °C. A 20 mL culture incubated overnight at 37°C was prepared from a single colony in LB medium supplemented with 100 mg/L of ampicillin. The strain was inoculated into fresh LB liquid medium according to the inoculation ratio of 1:100 and incubated at 37 ℃ for about 4 hours until the OD600 reached about 1.0. The temperature of the incubator was set to 20 ℃ and then cultured for 1 hour, and 200 uM IPTG was added to induce overnight. First of all, the induced cells were collected by freezing centrifuge 3000 rpm for 30 min, and the collected cells were resuspended with Buffer 1 (20 mM Tris-HCl, pH 8.0, 150 mM NaCl), and then crushed low temperature and pressure with a high pressure crusher. The broken cells were centrifuged 1 hour at 4 °C for18000 rpm by high speed centrifuge. After centrifugation at 4 °C 18000 rpm for 1 hour, and the supernatant was discarded and the cell membrane was collected. The collected cell membranes were resuscitated with Buffer 2 (20 mM Tris-HCl, pH 8.0, 300 mM NaCl, 1% DDM) and then dissolved at 4 °C for 2 hours. After dissolving the membrane, the supernatant was collected by high speed centrifuge at 18,000 rpm. The 20 mM imidazole was added to the supernatant and incubated with a 2 mL Ni-NTA sefinoseTM resin column for 1 hour. After incubation, 10 column volumes were washed with Buffer 3 (20 mM Tris-HCl, pH 8.0, 300 mM NaCl, 0.025%DDM) containing 30 mM and 50 mM imidazole respectively. Then, the protein was eluted with Buffer 3 containing 200 mM imidazole, and the eluted protein was collected. Finally, using the 20-fold molar excess of EZ-LinkTM Sulfo-NHS-LC-LC-Biotin for BAM complex, and incubate reaction on ice for 2 hours. After the protein labeling is completed, dialysis is used to purify the labeled protein to remove the remaining unreacted and hydrolyzed biotin reagents. […]
The mobile phase was 0.1% TFA aqueous solution / acetonitrile containing 0.1%
TFA. The purified macrocyclic peptides and fluorinated macrocyclic peptides were confirmed by electrospray ionization mass spectrometry (ESI-MS).
Binding kinetics analysis by SPR
The binding kinetics between the selected peptides and EphA2 were tested by SPR using a Biacore T200 instrument (GE Healthcare) at 25 °C. In this study, the running buffer was HBS-EP+ buffer (10 mM HEPES-KOH (pH 7.4), 150 mM NaCl, 50 μM EDTA, 0.05% Tween 20) containing 0.1% DMSO. Biotin capture kit (GE Healthcare) was used to fix human EphA2 on the surface of Biacore CAP chip with a density of 1050 RU. Five different concentrations of peptides were injected at the flow rate of 30 μL/min, and their kinetic constants were determined. The binding kinetic was quantified by single cycle kinetic method. Finally, the binding sensorgrams was analyzed by Biacore evaluation software, and the standard 1:1 model was used for fitting.
The binding kinetics between the selected peptides and BAM complex were tested by SPR using […]
a Biacore T200 instrument (GE Healthcare) at 25 °C. In this study, the running buffer was HBS-EP+ […]
0.1% DMSO. The Series S Sensor Chip CM5 was used to fix BAM complex on the surface of Biacore CM5 chip with a density of 9500 RU. The binding mode was multi-cycle kinetics (one sample concentration one cycle). Finally, the binding sensorgrams was analyzed by Biacore evaluation software, and the standard 1:1 model was used for fitting.
Preliminary evaluation of the antibacterial activity of macrocyclic peptides against E. coli […]
Remove the previously preserved E. coli W3110 cells from the -80 °C refrigerator, scrape a little, inoculate it into 1 mL LB liquid medium, and culture overnight in 37°C shaker. The strain was […]

human EphA2 = human EphA2 (Homo sapiens, UniProt P29317); assay: SPR binding kinetics to EphA2; conditions: Biacore T200, 25 °C, HBS-EP+ buffer pH 7.4 with 0.1% DMSO, biotinylated human EphA2 on CAP chip (1050 RU), single cycle kinetics, five concentrations, 1:1 model
Sequence of human EphA2 (P29317 24-976): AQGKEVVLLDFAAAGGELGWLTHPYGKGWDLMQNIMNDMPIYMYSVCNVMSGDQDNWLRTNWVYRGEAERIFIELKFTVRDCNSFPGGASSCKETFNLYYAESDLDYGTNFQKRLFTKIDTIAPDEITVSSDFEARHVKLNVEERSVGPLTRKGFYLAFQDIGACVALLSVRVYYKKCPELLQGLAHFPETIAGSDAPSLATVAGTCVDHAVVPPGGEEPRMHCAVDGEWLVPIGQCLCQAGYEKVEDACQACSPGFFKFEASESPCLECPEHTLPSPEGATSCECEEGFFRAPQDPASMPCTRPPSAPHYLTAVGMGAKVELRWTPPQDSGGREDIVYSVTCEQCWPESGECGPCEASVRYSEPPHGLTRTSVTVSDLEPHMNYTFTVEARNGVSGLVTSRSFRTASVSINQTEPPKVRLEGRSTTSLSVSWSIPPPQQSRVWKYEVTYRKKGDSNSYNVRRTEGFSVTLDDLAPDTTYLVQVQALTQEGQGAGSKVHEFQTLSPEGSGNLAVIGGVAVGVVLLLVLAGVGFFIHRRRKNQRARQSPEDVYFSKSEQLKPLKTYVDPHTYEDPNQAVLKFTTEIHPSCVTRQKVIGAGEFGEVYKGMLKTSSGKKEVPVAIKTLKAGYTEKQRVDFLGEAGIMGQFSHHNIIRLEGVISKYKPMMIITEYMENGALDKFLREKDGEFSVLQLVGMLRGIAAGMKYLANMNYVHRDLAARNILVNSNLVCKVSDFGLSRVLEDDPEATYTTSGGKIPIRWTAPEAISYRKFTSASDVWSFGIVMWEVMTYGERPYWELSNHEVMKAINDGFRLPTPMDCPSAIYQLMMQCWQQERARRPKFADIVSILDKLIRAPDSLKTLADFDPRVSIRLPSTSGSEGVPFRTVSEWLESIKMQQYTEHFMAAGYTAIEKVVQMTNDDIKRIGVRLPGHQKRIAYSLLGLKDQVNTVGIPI
Procedure: The cDNAs was detected by QuantStudio™ real-time PCR system (Applied Biosystems), then PCR was recovered by phusion® high-fidelity DNA polymerase and transcribed in vitro to construct a mRNA library rich in BAM complex(or EphA2) binding sequences to prepare for the next round of screening. Starting with the second round of screening, six more negative selections were added before positive selections to remove unwanted beads binders. Finally, the cDNAs recovered in the sixth(or fifth) round was deep sequencing using NovaSeq 6000 system (Ilumina).
General procedures for solid-phase synthesis of selected peptides
In this study, macrocyclic peptides and fluorinated macrocyclic peptides were synthesized by standard Fmoc solid phase peptide synthesis (SPPS). Firstly, a mixture (0.3 mmol Fmoc-Gly-OH and 0.3 mmol HOBT dissolved in 8 mL DMF and 0.5 mL DIC) was prepared, and 0.5 g Rink Amide MBHA resin was added to the mixture, and then reacted under nitrogen protection for 1.5 h. The resin was filtered and washed at least three times with DMF and DCM, and a deprotective agent (DMF solution containing 20% piperidine) was added to remove the Fmoc protective group. Then a new mixture (0.9 mmol Fmoc-AA-OH and 0.9 mmol HOBT dissolved in 10 mL DMF and 1 mL DIC) was prepared and condensation reaction was carried out under nitrogen protection for 1 hour.
By repeating the steps of deprotection and condensation reaction, the desired peptide was finally obtained, and the bromoacetyl group was connected to the N-terminal free α-amino group of the resin peptide. […]
The binding kinetics between the selected peptides and EphA2 were tested by SPR using a Biacore T200 instrument (GE Healthcare) at 25 °C. […] Five different concentrations of peptides were injected at the flow rate of 30 μL/min, and their kinetic constants were determined. The binding kinetic was quantified by single cycle kinetic method. Finally, the binding sensorgrams was analyzed by Biacore evaluation software, and the standard 1:1 model was used for fitting. […]

| Molecule | ka for BAM complex (BAM complex; CM5 chip) | Kd (BAM complex; HBS-EP+ buffer pH 7.4 with 0.1% DMSO, BAM complex on CM5 chip (9500 RU)) [nM] | Kd (human EphA2) [nM] |
| --- | --- | --- | --- |
| CC[C@H](C)[C@@H]1NC(=O)[C@H](CC(C)C)NC(=O)[C@@H](Cc2ccc(O)cc2)NC(=O)CSC[C@@H](C(=O)NCC(N)=O)NC(=O)[C@H](C(C)C)NC(=O)[C@H](CCCNC(=N)N)NC(=O)[C@H](Cc2ccccc2)NC(=O)[C@@H]2CCCN2C(=O)[C@H](Cc2c[nH]cn2)NC(=O)[C@H](CO)NC(=O)[C@H](CCCNC(=N)N)NC(=O)[C@H](CO)NC(=O)[C@H](Cc2ccc(O)cc2)NC(=O)[C@H](Cc2c[nH]c3ccccc23)NC1=O [BAM-D1] ({CH2CO}-[dY]LIWYSRSHPFRVCG-NH2; thioether N-14) | 0.43 ×10 4 M-1s-1 | 763 | – |
| CC[C@H](C)[C@@H]1NC(=O)[C@@H](Cc2ccc(F)cc2)NC(=O)CSC[C@@H](C(=O)NCC(N)=O)NC(=O)[C@H](Cc2ccc(O)cc2)NC(=O)[C@H](CCCNC(=N)N)NC(=O)[C@H](CCC(N)=O)NC(=O)[C@H]([C@@H](C)O)NC(=O)[C@H]([C@@H](C)O)NC(=O)[C@H](Cc2ccc(F)c(F)c2)NC(=O)[C@H](CCCCN)NC(=O)[C@H](CC(C)C)NC(=O)[C@H](C)NC(=O)[C@H](Cc2ccc(O)cc2)NC(=O)[C@H](Cc2c[nH]c3ccccc23)NC1=O [Ep-F1] ({CH2CO}-[dPhe(4-F)]IWYALK[Phe(3,4-F2)]TTQRYCG-NH2; thioether N-14) | – | – | 9.9 |
| CC(C)C[C@@H]1NC(=O)[C@@H]2CCCN2C(=O)[C@H](Cc2c[nH]cn2)NC(=O)[C@@H](Cc2ccc(F)cc2)NC(=O)CSC[C@@H](C(=O)N[C@@H](Cc2c[nH]c3ccccc23)C(=O)N[C@H](C(=O)N[C@@H](CCCCN)C(=O)N[C@@H](CO)C(=O)NCC(N)=O)[C@@H](C)O)NC(=O)CNC(=O)[C@H](Cc2ccc(F)c(F)c2)NC(=O)[C@H](CC(N)=O)NC(=O)[C@H](Cc2ccc(O)cc2)NC1=O [Ep-F2] ({CH2CO}-[dPhe(4-F)]HPLYN[Phe(3,4-F2)]GCWTKSG-NH2; thioether N-9) | – | – | 0.25 |
| Ep-F2-M2: variant of Ep-F2 measured by SPR (Fig. S4) to examine the role of fluorination (FHPLYNFGCWTKSG; Parent Ep-F2 is printed as Ac-(4-F-DPhe)HPLYN(2F-LPhe)GCWTKSG-NH2) | – | – | 0.29 |
